Results on two compounds are retold here after ChEMBL document CHEMBL1122452, “Mitomycin C analogues with secondary amines at position 7” (J Med Chem, 1983).

In series [1] the test system is B16. Kind of series: Median survival time (% T/C) after ip administration of a dose of 2 mg/kg/day in B-16 melanoma in mice. Type of series: functional, Mus musculus. The following applies: route intraperitoneal.
The nature of series [2]: E1/2 value related to the saturated calomal electrode. Further details: unit not given here. Type of series: ADME.
The test system of series [3] is B16. In words: Median survival time (% T/C) after ip administration of a dose of 3 mg/kg/day in B-16 melanoma in mice. In kind it is functional, Mus musculus. The following applies: route intraperitoneal.
In series [4] the test system is B16. Kind of series: Tumor free survivors on 62nd day after ip administration of a dose of 3 mg/kg/day in B-16 melanoma in mice. Type of series: functional, Mus musculus. The note with it: route intraperitoneal.
Series [5] relates to B16. Kind of series: Average weight change after ip administration of a dose of 1 mg/kg/day in B-16 melanoma in mice. The note with it: route intraperitoneal. Type of series: functional, Mus musculus.
Series [6] concerns B16. Kind of series: Tumor free survivors on 62nd day after ip administration of a dose of 4 mg/kg/day in B-16 melanoma in mice. In kind it is functional, Mus musculus. The following applies: route intraperitoneal.
The subject of series [7] is B16. In words: Average weight change after ip administration of a dose of 4 mg/kg/day in B-16 melanoma in mice. In kind it is functional, Mus musculus. The following applies: route intraperitoneal.
Series [8] relates to B16. Kind of series: Tumor free survivors on 62nd day after ip administration of a dose of 2 mg/kg/day in B-16 melanoma in mice. Type of series: functional, Mus musculus. The following applies: route intraperitoneal.
Series [9] has as its system B16. In words: Median survival time (% T/C) after ip administration of a dose of 1 mg/kg/day in B-16 melanoma in mice. In kind it is functional, Mus musculus. The following applies: route intraperitoneal.
The subject of series [10] is P388. Kind of series: Optimal dose required for antitumor activity against P-388 murine leukemia cells in mice. Type of series: functional, Mus musculus.
Series [11] deals with B16. In words: Average weight change after ip administration of a dose of 3 mg/kg/day in B-16 melanoma in mice. The note with it: route intraperitoneal. In kind it is functional, Mus musculus.
Series [12] concerns P388. In words: Maximum % T/C against P-388 murine leukemia cells in mice. Type of series: functional, Mus musculus.
The test system of series [13] is P388. In words: Minimum effective dose required for antitumor activity against P-388 murine leukemia cells in mice. In kind it is functional. The note with it: Mus musculus, read-out: MED.
Series [14] has as its system B16. Kind of series: Median survival time (% T/C) after ip administration of a dose of 4 mg/kg/day inB-16 melanoma in mice. In kind it is functional, Mus musculus. The following applies: route intraperitoneal.
The test system of series [15] is B16. Kind of series: Average weight change after ip administration of a dose of 2 mg/kg/day in B-16 melanoma in mice. Type of series: functional, Mus musculus. The note with it: route intraperitoneal.
The test system of series [16] is P388. Kind of series: Leukopenia % change in WBC at optimal dose on 3rd day. Type of series: functional, Mus musculus.
For series [17], the system named is B16. Kind of series: Tumor free survivors on 62nd day after ip administration of a dose of 1 mg/kg/day in B-16 melanoma in mice. Type of series: functional, Mus musculus. The note with it: route intraperitoneal.
Series [18] has as its system B16. Kind of series: Tumor free survivors on 62nd day after ip administration of a dose of 6 mg/kg/day in B-16 melanoma in mice; out of 10. Type of series: functional, Mus musculus. The following applies: route intraperitoneal.
Series [19] relates to B16. In words: Tumor free survivors on 62nd day after ip administration of a dose of 4 mg/kg/day in B-16 melanoma in mice; out of 10. In kind it is functional, Mus musculus. The note with it: route intraperitoneal.
The subject of series [20] is B16. Kind of series: Median survival time (% T/C) after ip administration of a dose of 6 mg/kg/day in B-16 melanoma in mice. In kind it is functional, Mus musculus. The note with it: route intraperitoneal.
Series [21] relates to B16. In words: Median survival time (% T/C) after ip administration of a dose of 4 mg/kg/day in B-16 melanoma in mice. In kind it is functional, Mus musculus. The note with it: route intraperitoneal.
Series [22] concerns B16. Kind of series: Average weight change after ip administration of a dose of 6 mg/kg/day in B-16 melanoma in mice. Type of series: functional, Mus musculus. The following applies: route intraperitoneal.
The test system of series [23] is P388. In words: Maximum % T/C with mitomycin C against P-388 murine leukemia cells in mice. Type of series: functional, Mus musculus.

As to `CO[C@@]12[C@H](COC(N)=O)C3=C(C(=O)C(C)=C(N)C3=O)N1C[C@@H]1N[C@@H]12` [MITOMYCIN], the T/C amounted to 152% in the series with B16 [1]; 165% with B16 [3]; 155% with B16 [9]; 161% with P388 [12]; 200% with B16 [14]. The compound also displayed an E1/2 in series [2] of -0.45. The Cures in the series on B16 [4], in the series with B16 [6], in the series on B16 [8] and in the series on B16 [17] was 0 throughout. Also, the Average weight change in the series on B16 [5] is recorded as 0.2 g; with B16 [7], -0.1 g; with B16 [11], -0.1 g; in the series on B16 [15], 0.5 g. Also, the Dose in the series on P388 [10] was determined as 3.2 mg/kg. In addition, in the series on P388 [13], the minimal effective dose is 0.2 mg/kg. Besides, in the series on P388 [16], the Change in WBC is -42%.

Take `COC12[C@@H]3N[C@@H]3CN1C1=C(C(=O)C(N3CCN(C=O)CC3)=C(C)C1=O)[C@@H]2COC(N)=O` (stereo partly drawn): the Cures is listed as 2 with B16 [18]; 6 with B16 [19]; 6 in the series with B16 [4]; 5 with B16 [8]; 1 in the series with B16 [17]. Also, the T/C in the series on B16 [1] was determined as 275%; with B16 [3], 310%; with B16 [20] it was 88%; in the series on B16 [21], 310%; in the series on B16 [9], 210%; with P388 [23], 224%. Further, the T/C in the series with P388 [12] turned out to be 294%. Also, the E1/2 in series [2] stood at 0.23. Also, the Average weight change in the series on B16 [5] was 0 g; in the series on B16 [7], -1 g; in the series on B16 [22], -0.7 g; in the series on B16 [11], -0.4 g; in the series with B16 [15], -0.1 g. For the same compound, in the series with P388 [10], the Dose came to 6.4 mg/kg. Besides, the minimal effective dose in the series on P388 [13] was found to be 0.2 mg/kg. Moreover, in the series with P388 [16], the “Change in WBC” value is on record as 16%.
